Experimental findings from PubChem BioAssay (NCI) are described below.

Test systems include CAKI-1 renal; HCT-116 colon; KM12 colon; MOLT-4 leukemia; NCI-H226 lung; NCI/ADR-RES ovarian; PC-3 prostate; SF-295 CNS; SNB-75 CNS; UACC-257 melanoma.
Common to all, as to experiment: NCI anticancer screen, dose series, 48 h

Molecules are shown by their SMILES.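 1) Cells in 96-well plates. 2) Compound, 48 h, 5 concentrations. 3) Linear interpolation between surrounding doses. 4) Unreached endpoint = highest concentration. GI50 is the concentration that inhibits growth by half. TGI: total growth inhibition.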

Regarding `Cc1ccc(S(=O)(=O)C2=C3C(=C(c4ccccc4)c4ccccc43)CN(S(=O)(=O)c3ccc(C)cc3)C2)cc1`, the GI50 in the experiment with CAKI-1 renal is 11.5 µM; in the experiment on HCT-116 colon, 2 µM; with KM12 colon, 5.87 µM; with MOLT-4 leukemia, 1.36 µM; with NCI-H226 lung it was 2.57 µM; in the experiment on NCI/ADR-RES ovarian, 2.98 µM. The GI50 with PC-3 prostate is 3.39 µM; in the experiment on SF-295 CNS, 9.97 µM; with SNB-75 CNS, 2.92 µM; with UACC-257 melanoma, 15.8 µM. For the same compound, the TGI is more than 100 µM with CAKI-1 renal; 7.78 µM in the experiment with HCT-116 colon; more than 100 µM in the experiment with KM12 colon; 7.9 µM with MOLT-4 leukemia; 7.85 µM in the experiment on NCI-H226 lung; 90.7 µM in the experiment with NCI/ADR-RES ovarian. Besides, the TGI in the experiment with PC-3 prostate was more than 100 µM; in the experiment on SF-295 CNS, 57 µM; with SNB-75 CNS it was 31.6 µM; in the experiment with UACC-257 melanoma, 37.4 µM.
As for `COc1cc2c3c(n(CCCN4CCOCC4)c(=O)c2cc1OC)-c1cc2c(cc1C3=O)OCO2`, the GI50 is 0.52 µM with CAKI-1 renal; 1.8 µM with HCT-116 colon; 32.4 µM in the experiment with KM12 colon; 0.0841 µM in the experiment with MOLT-4 leukemia; 4.6 µM with NCI-H226 lung; 1.57 µM with NCI/ADR-RES ovarian. The GI50 was 18.7 µM with PC-3 prostate, 0.137 µM with SF-295 CNS, 8.29 µM with SNB-75 CNS and more than 51.5 µM in the experiment on UACC-257 melanoma. For the same compound, the TGI with CAKI-1 renal is 14.6 µM; in the experiment on HCT-116 colon, 17.4 µM; in the experiment with KM12 colon, more than 100 µM; in the experiment with MOLT-4 leukemia, 1.81 µM; in the experiment on NCI-H226 lung, more than 81.8 µM; with NCI/ADR-RES ovarian, 27.1 µM. Moreover, the TGI in the experiment on PC-3 prostate was more than 100 µM; in the experiment with SF-295 CNS it was more than 38.8 µM; in the experiment on SNB-75 CNS, more than 100 µM; in the experiment on UACC-257 melanoma it was more than 100 µM.
As for `COc1ccc(C2SC(C)C(=O)N2NC(=O)C(O)c2ccccc2)cc1` (stereo not given), the GI50 in the experiment with CAKI-1 renal, in the experiment on HCT-116 colon, in the experiment with KM12 colon, in the experiment on MOLT-4 leukemia, with NCI-H226 lung and in the experiment with NCI/ADR-RES ovarian was more than 100 µM in each case. Also, the GI50 was more than 100 µM in the experiment on PC-3 prostate, more than 100 µM in the experiment with SF-295 CNS, 60.3 µM with SNB-75 CNS and more than 100 µM in the experiment on UACC-257 melanoma. Further, the TGI in the experiment on CAKI-1 renal, with HCT-116 colon, in the experiment on KM12 colon, in the experiment on MOLT-4 leukemia, in the experiment with NCI-H226 lung and in the experiment with NCI/ADR-RES ovarian was more than 100 µM in each case. Also, the TGI in the experiment with PC-3 prostate, with SF-295 CNS, in the experiment on SNB-75 CNS and in the experiment with UACC-257 melanoma was more than 100 µM each time.
